# Data reported in publication PMC7532004, “Site-specific effects of neurosteroids on GABAA receptor activation and desensitization” (eLife, 2020).
# Molecular target: T1, α1β3 GABAARs on intact HEK cell surfaces (Homo sapiens, UniProt P14867+P28472)
# T1 construct: inserted between the fourth and fifth residues of the mature peptide; photolabeling full-length heteropentameric GABAARs in native membranes; expressed in transfected cells
# T1 sequence (P14867 28-456): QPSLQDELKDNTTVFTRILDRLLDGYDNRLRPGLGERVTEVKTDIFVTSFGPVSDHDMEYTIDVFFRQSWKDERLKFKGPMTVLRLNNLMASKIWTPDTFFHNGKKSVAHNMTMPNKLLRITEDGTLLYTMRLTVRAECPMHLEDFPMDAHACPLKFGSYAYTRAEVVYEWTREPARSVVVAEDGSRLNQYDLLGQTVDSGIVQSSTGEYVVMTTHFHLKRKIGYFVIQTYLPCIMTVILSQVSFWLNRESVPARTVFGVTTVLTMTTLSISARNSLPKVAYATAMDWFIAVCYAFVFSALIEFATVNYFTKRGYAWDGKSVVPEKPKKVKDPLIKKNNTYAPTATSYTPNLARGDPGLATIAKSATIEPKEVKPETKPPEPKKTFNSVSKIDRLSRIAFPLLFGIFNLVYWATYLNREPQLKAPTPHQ
# T1 sequence (P28472 26-473): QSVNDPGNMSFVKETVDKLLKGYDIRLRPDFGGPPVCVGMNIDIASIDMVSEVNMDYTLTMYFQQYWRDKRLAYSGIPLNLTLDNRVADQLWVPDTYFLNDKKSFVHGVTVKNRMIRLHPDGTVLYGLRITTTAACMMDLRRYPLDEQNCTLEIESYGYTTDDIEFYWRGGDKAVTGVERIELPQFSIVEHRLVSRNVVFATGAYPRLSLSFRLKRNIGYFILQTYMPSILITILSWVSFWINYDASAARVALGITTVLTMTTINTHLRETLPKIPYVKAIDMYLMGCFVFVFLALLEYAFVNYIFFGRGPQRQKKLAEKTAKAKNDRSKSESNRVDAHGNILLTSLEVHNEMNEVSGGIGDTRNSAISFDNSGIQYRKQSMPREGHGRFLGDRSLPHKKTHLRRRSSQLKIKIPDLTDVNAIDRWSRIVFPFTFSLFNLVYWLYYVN
# Assay: [3H]muscimol binding to intact HEK cells (cell surface vs total receptors)
# Details: 10 μM KK148; 3 nM [3H]muscimol; intact vs permeabilized HEK cells
# Experimental: HEK cells were harvested by gently washing dishes with buffer containing 10 mM sodium phosphate (pH 7.5), 150 mM sodium chloride twice. The cells were collected by centrifugation at 500 g at 4°C for 5 min, and resuspended in isotonic (10 mM sodium phosphate, 150 mM sodium chloride, pH 7.5) or hypotonic (10 mM sodium phosphate, pH 7.5) buffer to prepare two different conditions for radioligand binding to intact cells [isotonic buffer for cell surface receptors; hypotonic buffer for total receptors (cell surface receptors + intracellular receptors)]. The cells were incubated on ice for 2 hr, after which the sodium chloride concentration was adjusted to be isotonic before the radioligand binding procedure. HEK cells were aliquoted to assay tubes (20 samples/150 mm dish) in a total volume of 1 ml, and incubated with 3 nM [^3H]muscimol ±10 μM KK148 for 1 hr on ice in the dark.
smiles,measurement,value
C#CCCO[C@H]1CC[C@H]2[C@@H]3CC[C@H]4CC5(CC[C@]4(C)[C@H]3CC[C@]12C)N=N5 [KK148],Enhancement of specific [3H]muscimol binding in intact cells,enhanced
